± gives the expanded uncertainty stated by the source.
Test: xn = mol fraction of the nth substance listed
Details: 100 kPa, Liquid; for electrical conductivity: Alternating current cell with electrodes; for mass density: Vibrating tube method; for viscosity: Capillary tube (Ostwald / Ubbelohde) method

`CCCC[N+]1(C)CCCC1.N#CN=C=[N-]` [1-butyl-1-methylpyrrolidinium dicyanamide] + O=C1CCCO1 gave an electrical conductivity (283.15 K, Frequency=0.008 MHz, x1 = 0.0463) of 1.17 ± 0.02 S/m, an electrical conductivity (283.15 K, Frequency=0.008 MHz, x1 = 0.0987) of 1.73 ± 0.021 S/m and an electrical conductivity (283.15 K, Frequency=0.008 MHz, x1 = 0.1449) of 1.93 ± 0.02 S/m. It also gave an electrical conductivity (283.15 K, Frequency=0.008 MHz, x1 = 0.1859) of 2.028 ± 0.02 S/m, an electrical conductivity (283.15 K, Frequency=0.008 MHz, x1 = 0.2493) of 1.926 ± 0.019 S/m and an electrical conductivity (283.15 K, Frequency=0.008 MHz, x1 = 0.3029) of 1.84 ± 0.019 S/m. It also gave an electrical conductivity (283.15 K, Frequency=0.008 MHz, x1 = 0.3845) of 1.66 ± 0.017 S/m, an electrical conductivity (283.15 K, Frequency=0.008 MHz, x1 = 0.4985) of 1.407 ± 0.014 S/m and an electrical conductivity (283.15 K, Frequency=0.008 MHz, x1 = 0.6954) of 1.07 ± 0.01 S/m. The electrical conductivity (283.15 K, Frequency=0.008 MHz, x1 = 0.9013) was 0.849 ± 0.009 S/m, the electrical conductivity (283.15 K, Frequency=0.008 MHz, x1 = 1) was 0.786 ± 0.008 S/m and the electrical conductivity (283.15 K, Frequency=0.00857143 MHz, x1 = 0.0463) was 1.17 ± 0.02 S/m. For the same compound, the electrical conductivity (283.15 K, Frequency=0.00857143 MHz, x1 = 0.0987) was 1.73 ± 0.021 S/m, the electrical conductivity (283.15 K, Frequency=0.00857143 MHz, x1 = 0.1449) was 1.93 ± 0.02 S/m and the electrical conductivity (283.15 K, Frequency=0.00857143 MHz, x1 = 0.1859) was 2.028 ± 0.02 S/m. It also gave an electrical conductivity (283.15 K, Frequency=0.00857143 MHz, x1 = 0.2493) of 1.926 ± 0.019 S/m, an electrical conductivity (283.15 K, Frequency=0.00857143 MHz, x1 = 0.3029) of 1.84 ± 0.019 S/m and an electrical conductivity (283.15 K, Frequency=0.00857143 MHz, x1 = 0.3845) of 1.66 ± 0.017 S/m. The electrical conductivity (283.15 K, Frequency=0.00857143 MHz, x1 = 0.4985) was 1.407 ± 0.014 S/m, the electrical conductivity (283.15 K, Frequency=0.00857143 MHz, x1 = 0.6954) was 1.07 ± 0.01 S/m and the electrical conductivity (283.15 K, Frequency=0.00857143 MHz, x1 = 0.9013) was 0.849 ± 0.009 S/m. It also gave an electrical conductivity (283.15 K, Frequency=0.00857143 MHz, x1 = 1) of 0.786 ± 0.008 S/m, an electrical conductivity (283.15 K, Frequency=0.00892857 MHz, x1 = 0.0463) of 1.17 ± 0.02 S/m and an electrical conductivity (283.15 K, Frequency=0.00892857 MHz, x1 = 0.0987) of 1.73 ± 0.021 S/m. It also gave an electrical conductivity (283.15 K, Frequency=0.00892857 MHz, x1 = 0.1449) of 1.93 ± 0.02 S/m, an electrical conductivity (283.15 K, Frequency=0.00892857 MHz, x1 = 0.1859) of 2.028 ± 0.02 S/m and an electrical conductivity (283.15 K, Frequency=0.00892857 MHz, x1 = 0.2493) of 1.926 ± 0.019 S/m. The electrical conductivity (283.15 K, Frequency=0.00892857 MHz, x1 = 0.3029) was 1.84 ± 0.019 S/m, the electrical conductivity (283.15 K, Frequency=0.00892857 MHz, x1 = 0.3845) was 1.66 ± 0.017 S/m and the electrical conductivity (283.15 K, Frequency=0.00892857 MHz, x1 = 0.4985) was 1.407 ± 0.014 S/m. It also gave an electrical conductivity (283.15 K, Frequency=0.00892857 MHz, x1 = 0.6954) of 1.07 ± 0.01 S/m, an electrical conductivity (283.15 K, Frequency=0.00892857 MHz, x1 = 0.9013) of 0.849 ± 0.009 S/m and an electrical conductivity (283.15 K, Frequency=0.00892857 MHz, x1 = 1) of 0.786 ± 0.008 S/m. The electrical conductivity (283.15 K, Frequency=0.00961538 MHz, x1 = 0.0463) was 1.17 ± 0.02 S/m, the electrical conductivity (283.15 K, Frequency=0.00961538 MHz, x1 = 0.0987) was 1.73 ± 0.021 S/m and the electrical conductivity (283.15 K, Frequency=0.00961538 MHz, x1 = 0.1449) was 1.93 ± 0.02 S/m. For the same compound, the electrical conductivity (283.15 K, Frequency=0.00961538 MHz, x1 = 0.1859) was 2.028 ± 0.02 S/m, the electrical conductivity (283.15 K, Frequency=0.00961538 MHz, x1 = 0.2493) was 1.927 ± 0.019 S/m and the electrical conductivity (283.15 K, Frequency=0.00961538 MHz, x1 = 0.3029) was 1.84 ± 0.019 S/m. The electrical conductivity (283.15 K, Frequency=0.00961538 MHz, x1 = 0.3845) was 1.66 ± 0.017 S/m, the electrical conductivity (283.15 K, Frequency=0.00961538 MHz, x1 = 0.4985) was 1.407 ± 0.014 S/m and the electrical conductivity (283.15 K, Frequency=0.00961538 MHz, x1 = 0.6954) was 1.07 ± 0.01 S/m. For the same compound, the electrical conductivity (283.15 K, Frequency=0.00961538 MHz, x1 = 0.9013) was 0.849 ± 0.009 S/m, the electrical conductivity (283.15 K, Frequency=0.00961538 MHz, x1 = 1) was 0.786 ± 0.008 S/m and the electrical conductivity (283.15 K, Frequency=0.01 MHz, x1 = 0.0463) was 1.17 ± 0.02 S/m. The electrical conductivity (283.15 K, Frequency=0.01 MHz, x1 = 0.0987) was 1.73 ± 0.021 S/m, the electrical conductivity (283.15 K, Frequency=0.01 MHz, x1 = 0.1449) was 1.93 ± 0.02 S/m and the electrical conductivity (283.15 K, Frequency=0.01 MHz, x1 = 0.1859) was 2.028 ± 0.02 S/m. For the same compound, the electrical conductivity (283.15 K, Frequency=0.01 MHz, x1 = 0.2493) was 1.927 ± 0.019 S/m, the electrical conductivity (283.15 K, Frequency=0.01 MHz, x1 = 0.3029) was 1.84 ± 0.019 S/m and the electrical conductivity (283.15 K, Frequency=0.01 MHz, x1 = 0.3845) was 1.66 ± 0.017 S/m. For the same compound, the electrical conductivity (283.15 K, Frequency=0.01 MHz, x1 = 0.4985) was 1.407 ± 0.014 S/m, the electrical conductivity (283.15 K, Frequency=0.01 MHz, x1 = 0.6954) was 1.07 ± 0.01 S/m and the electrical conductivity (283.15 K, Frequency=0.01 MHz, x1 = 0.9013) was 0.849 ± 0.009 S/m. The electrical conductivity (283.15 K, Frequency=0.01 MHz, x1 = 1) was 0.786 ± 0.008 S/m, the mass density (283.15 K, x1 = 0.0987) was 1116.14 ± 8.9 kg/m3 and the mass density (283.15 K, x1 = 0.1859) was 1099.19 ± 8.8 kg/m3. It also gave a mass density (283.15 K, x1 = 0.3029) of 1080.61 ± 8.7 kg/m3, a mass density (283.15 K, x1 = 0.4985) of 1057.34 ± 8.5 kg/m3 and a mass density (283.15 K, x1 = 0.6954) of 1040.35 ± 8.3 kg/m3. For the same compound, the mass density (283.15 K, x1 = 0.9013) was 1027.12 ± 8.3 kg/m3, the mass density (283.15 K, x1 = 1) was 1021.96 ± 8.2 kg/m3 and the electrical conductivity (293.15 K, x1 = 0.0463) was 1.37 ± 0.024 S/m. For the same compound, the electrical conductivity (293.15 K, x1 = 0.0987) was 2.05 ± 0.025 S/m, the electrical conductivity (293.15 K, x1 = 0.1449) was 2.31 ± 0.024 S/m and the electrical conductivity (293.15 K, x1 = 0.1859) was 2.45 ± 0.025 S/m. The electrical conductivity (293.15 K, x1 = 0.2493) was 2.37 ± 0.024 S/m, the electrical conductivity (293.15 K, x1 = 0.3029) was 2.29 ± 0.023 S/m and the electrical conductivity (293.15 K, x1 = 0.3845) was 2.116 ± 0.021 S/m. For the same compound, the electrical conductivity (293.15 K, x1 = 0.4985) was 1.84 ± 0.019 S/m, the electrical conductivity (293.15 K, x1 = 0.6954) was 1.46 ± 0.015 S/m and the electrical conductivity (293.15 K, x1 = 0.9013) was 1.19 ± 0.012 S/m. For the same compound, the electrical conductivity (293.15 K, x1 = 1) was 1.123 ± 0.011 S/m, the viscosity (293.15 K, x1 = 0.0987) was 3.07 ± 0.07 mPa·s and the viscosity (293.15 K, x1 = 0.1859) was 4.46 ± 0.1 mPa·s. For the same compound, the viscosity (293.15 K, x1 = 0.3029) was 6.96 ± 0.16 mPa·s, the viscosity (293.15 K, x1 = 0.4985) was 13.06 ± 0.29 mPa·s and the viscosity (293.15 K, x1 = 0.6954) was 21.74 ± 0.49 mPa·s. It also gave a viscosity (293.15 K, x1 = 0.9013) of 33.58 ± 0.76 mPa·s, a viscosity (293.15 K, x1 = 1) of 40.25 ± 0.91 mPa·s and an electrical conductivity (293.15 K, Frequency=0.0005 MHz, x1 = 0.0463) of 1.36 ± 0.024 S/m. The electrical conductivity (293.15 K, Frequency=0.0005 MHz, x1 = 0.0987) was 2.03 ± 0.025 S/m, the electrical conductivity (293.15 K, Frequency=0.0005 MHz, x1 = 0.1449) was 2.31 ± 0.024 S/m and the electrical conductivity (293.15 K, Frequency=0.0005 MHz, x1 = 0.1859) was 2.426 ± 0.024 S/m. It also gave an electrical conductivity (293.15 K, Frequency=0.0005 MHz, x1 = 0.2493) of 2.37 ± 0.024 S/m, an electrical conductivity (293.15 K, Frequency=0.0005 MHz, x1 = 0.3029) of 2.28 ± 0.023 S/m and an electrical conductivity (293.15 K, Frequency=0.0005 MHz, x1 = 0.3845) of 2.108 ± 0.021 S/m. For the same compound, the electrical conductivity (293.15 K, Frequency=0.0005 MHz, x1 = 0.4985) was 1.84 ± 0.019 S/m, the electrical conductivity (293.15 K, Frequency=0.0005 MHz, x1 = 0.6954) was 1.45 ± 0.015 S/m and the electrical conductivity (293.15 K, Frequency=0.0005 MHz, x1 = 0.9013) was 1.19 ± 0.012 S/m. The electrical conductivity (293.15 K, Frequency=0.0005 MHz, x1 = 1) was 1.122 ± 0.011 S/m, the electrical conductivity (293.15 K, Frequency=0.001 MHz, x1 = 0.0463) was 1.36 ± 0.024 S/m and the electrical conductivity (293.15 K, Frequency=0.001 MHz, x1 = 0.0987) was 2.04 ± 0.025 S/m. For the same compound, the electrical conductivity (293.15 K, Frequency=0.001 MHz, x1 = 0.1449) was 2.31 ± 0.024 S/m, the electrical conductivity (293.15 K, Frequency=0.001 MHz, x1 = 0.1859) was 2.435 ± 0.024 S/m and the electrical conductivity (293.15 K, Frequency=0.001 MHz, x1 = 0.2493) was 2.37 ± 0.024 S/m. The electrical conductivity (293.15 K, Frequency=0.001 MHz, x1 = 0.3029) was 2.29 ± 0.023 S/m, the electrical conductivity (293.15 K, Frequency=0.001 MHz, x1 = 0.3845) was 2.111 ± 0.021 S/m and the electrical conductivity (293.15 K, Frequency=0.001 MHz, x1 = 0.4985) was 1.84 ± 0.019 S/m. For the same compound, the electrical conductivity (293.15 K, Frequency=0.001 MHz, x1 = 0.6954) was 1.46 ± 0.015 S/m, the electrical conductivity (293.15 K, Frequency=0.001 MHz, x1 = 0.9013) was 1.19 ± 0.012 S/m and the electrical conductivity (293.15 K, Frequency=0.001 MHz, x1 = 1) was 1.122 ± 0.011 S/m. It also gave an electrical conductivity (293.15 K, Frequency=0.0015 MHz, x1 = 0.0463) of 1.37 ± 0.024 S/m, an electrical conductivity (293.15 K, Frequency=0.0015 MHz, x1 = 0.0987) of 2.04 ± 0.025 S/m and an electrical conductivity (293.15 K, Frequency=0.0015 MHz, x1 = 0.1449) of 2.31 ± 0.024 S/m. The electrical conductivity (293.15 K, Frequency=0.0015 MHz, x1 = 0.1859) was 2.44 ± 0.024 S/m and the electrical conductivity (293.15 K, Frequency=0.0015 MHz, x1 = 0.2493) was 2.37 ± 0.024 S/m.
